Reference: patent US20140220110A1, “REMOTE LOADING OF SPARINGLY WATER-SOLUBLE DRUGS INTO LIPOSOMES” (ZONEONE PHARMA, INC., priority 2013, published 2014)
≈ marks a conversion by molar mass, not a printed value. Values belong to the molecule of their own block, whether it stands above or below them.

How the values were obtained:
[1] = Remote loading of doxorubicin and 17-DMAG into ammonium sulfate liposomes with and without 25% DMSO; type: physicochemical; settings: ammonium sulfate containing liposomes
Excerpt: To test the integrity of the liposomes in 25% DMSO we attempted to remote load the water-soluble weak base drugs doxorubicin and 17-dimethylaminoethylamino-17-demethoxygeldanamycin (17-DMAG) and compared to the same loading without DMSO.

Water solubility = type: physicochemical
[2] = Remote loading of aripiprazole precipitate into liposomes; type: physicochemical
Method: Liposomes (HSPC/Chol/PEG-DSPE 3/2/0.15 mol/mol/mol) containing 250 mM ammonium sulfate or 250 mM sodium sulfate were diluted in 1 mL of 50 mM citric acid, 10% (wt/wt) sucrose, pH 4.0 to a concentration of 6 mM phospholipid. […] Fine precipitates were immediately observed after the drug was added to both liposome samples. The samples were heated at 65° C. for 30 min, the cooled on ice. The samples were filtered through a 0.2 um polyethersulfone syringe filter to remove any drug precipitates, followed by purification on a Sephadex G25 column equilibrated with HBS, pH 6.5 to remove any soluble extraliposome drug. The turbid fraction was collected and analyzed for lipid and drug as described above.

[3] = cited from earlier work

Structure (SMILES): CO[C@H]1/C=C\C=C(/C)C(=O)NC2=CC(=O)C(NCCN(C)C)=C(C[C@@H](C)C[C@H](OC)[C@H](O)[C@@H](C)/C=C(\C)[C@@H]1OC(N)=O)C2=O [Formulation 17-DMAG, 17-dimethylaminoethylamino-17-demethoxygeldanamycin]
% Efficiency compared to control of no DMSO [1]: 73.1 ± 1.4%

solubility in water (Water solubility): very insoluble in water | Output D/L ([2]; (NH4)2SO4 liposomes, input D/L 50 ug/umol): 42.28 ± 0.49 µg/µmol | Output D/L ([2]; (Na)2SO4 liposomes, input D/L 50 ug/umol): 0.86 ± 0.51 µg/µmol | loading efficiency ([2]; drug introduced as SBCD complex (from Abilify), same concentration and loading conditions): 68% | Fold Increase NH4SO4/NaSO4 ([2]; input D/L 50 ug/umol): 49.3
Structure (SMILES): O=C1CCc2ccc(OCCCCN3CCN(c4cccc(Cl)c4Cl)CC3)cc2N1 [aripiprazole]

Structure (SMILES): O=C(O)c1ccc(-n2nc(-c3ccccc3O)nc2-c2ccccc2O)cc1 [deferasirox]
water solubility [3]: ~38 µg/mL (≈ 102 µM)

% Efficiency compared to control of no DMSO [1]: 92.7 ± 0.43%
Structure (SMILES): COc1cccc2c1C(=O)c1c(O)c3c(c(O)c1C2=O)C[C@@](O)(C(=O)CO)C[C@@H]3O[C@H]1C[C@H](N)[C@H](O)[C@H](C)O1 [doxorubicin]
